The source of these data is patent US20250332173A1, “COMPOUNDS AND METHODS FOR MODULATING NUCLEIC ACID SPLICING” (REMIX THERAPEUTICS INC., priority 2021, published 2025).

Usually IC50 stands for the concentration needed to halve the response being measured.

One assay deals with Target C. The assay can be described thus: HiBiT protein abundance assay, Target C HiBiT K562 cell line. The class given is cell-based. Conditions: Homo sapiens; HiBiT lytic detection, modified K562 cells, 24 hours, top dose 10 μM; read-out: Effect on protein abundance, Target C (IC50). The protocol:
• Promega Nano-Glo HiBiT Lytic Detection System (cat #N3030) • Corning 384-well TC-treated microplates (cat #3570) • Synthego Engineered Cells Knock-In Clones
Cells were maintained in IMDM with 10% FBS. Before the assay, cells were diluted with […] growth media (IMDM+[…] media) and were seeded in a 384-well plate at a density of 10,000 cells/well (for each cell line listed in Table 5). Each compound was prepared as a 10-point 3-fold serial dilution in DMSO with the top dose at a final concentration of 10 μM in the well. Unmodified K562 cells were added at the previously specified density with DMSO to serve as an assay baseline and positive control (PC) and DMSO only with the respective modified cell lines was added to the negative control (NC) columns. Final DMSO concentration was kept at or below 0.25%. Treated cell plates were placed in an incubator at 37° C. with […] for 24 hours. After 24 hours, 25 μL of Complete HiBit Lytic reagent was added to each well at room temperature (e.g. one plate requiring 10 mL Lytic Buffer, 100 μL LgBiT Protein, 200 μL Lytic Substrate), shaken for 5 minutes at 600 RPM, then left to sit for 10 minutes for signal to stabilize before reading on a Spark Cyto plate reader (Tecan) with a 500 ms measurement time.
To determine compound effects on protein abundance of each target in Table 5, the percent response for each respective cell line was calculated at each compound concentration as follows:
For the normalized response at each concentration, a four-parameter logistical regression was fit to the data and the response was interpolated at the […] to determine a concentration for protein abundance at […] the untreated control.
Background: The HiBiT peptide binds its large partner to form an active luciferase.
Turning to `CNC1CCN(c2ccc3cc(-c4cc(C)c5nc(C)cn5n4)ccn3c2=O)C1` (stereo not drawn) [Compound 1158], the concentration for half-maximal inhibition (IC50) lay in the range of 1000 to 10000 nM.
Turning to `Cc1cn2nc(-c3ccn4c(=O)c(C5CCNCC5)ccc4c3)cc(C)c2n1` [Compound 1181], the half-maximal inhibitory concentration (IC50) is below 100 nM.
Regarding `Cc1cn2nc(-c3ccn4c(=O)c(C5=CCNCC5)ncc4c3)cc(C)c2n1` [Compound 1182], the half-inhibitory concentration (IC50) fell in the range of 100 to 1000 nM.

Another assay concerns HTT. Briefly: HiBiT protein abundance assay, HTT HiBiT K562 cell line. The class given is cell-based, human. Conditions: HiBiT K562 cell line, 24 hours, top dose 10 μM; read-out: Effect on protein abundance, HTT (IC50 category). An outline of the steps: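 Endogenous targets in K562 knock-in lines carried a HiBiT tag and were treated for 24 h at 37 °C with 10-point 3-fold dilutions (top 10 μM final, DMSO ≤0.25%). Abundance was read as lytic Nano-Glo HiBiT luminescence. IC50 came from a four-parameter logistic fit of normalized response.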
Consider `Cc1cn2nc(-c3ccc4c(=O)n(C5CCNCC5)ccc4c3)cc(Oc3cccnc3)c2n1` [Compound 550, 6-[2-methyl-8-(3-pyridyloxy)imidazo[1,2-b]pyridazin-6-yl]-2-(4-piperidyl)isoquinolin-1-one], for which the IC50 is below 100 nM.
Turning to `Cc1cn2nc(-c3ccc4c(=O)n(C5CCNCC5)ccc4c3)cc(-n3ccc(=O)cc3)c2n1` [Compound 551, 6-[2-methyl-8-(4-oxo-1-pyridyl)imidazo[1,2-b]pyridazin-6-yl]-2-(4-piperidyl)isoquinolin-1-one], the IC50 was 100 to 1000 nM.
In the case of `Cc1cn2nc(-c3ccc4c(=O)n(C5CCNCC5)ccc4c3)cc(-n3ccccc3=O)c2n1` [Compound 552, 6-[2-methyl-8-(2-oxo-1-pyridyl)imidazo[1,2-b]pyridazin-6-yl]-2-(4-piperidyl)isoquinolin-1-one], the IC50 was above 10000 nM.
Still for that read-out and setting: for `Cc1cn2nc(-c3cc(O)c4c(=O)n(C5CCN(CCF)CC5)ncc4c3)cc(C)c2n1` [Compound 553] the value was below 100 nM.
As to `Cc1cc(-c2cc(F)c3c(=O)n(C4CCNC5(CC5)C4)ncc3c2)cc2cn(C)nc12` (stereo not drawn) [Compound 554], the IC50 was below 100 nM.
In the case of `Cc1nc2c(C)cc(-c3cc(F)c4c(=O)n(C5CCNC6(CC6)C5)ncc4c3)cc2o1` (stereo not drawn) [Compound 555], the half-maximal inhibitory concentration (IC50) was below 100 nM.
Still for that read-out and setting: for `Cc1cn2cc(-c3cc(F)c4c(=O)n(C5CCNC6(CC6)C5)ncc4c3)cc(Cl)c2n1` (stereo not drawn) [Compound 556] the value was below 100 nM.
With `Cc1cn2cc(-c3cc(O)c4c(=O)n(C5CCNC6(CC6)C5)ncc4c3)cc(Cl)c2n1` (stereo not drawn) [Compound 557], the IC50 was below 100 nM.
Consider `CCc1cn(C2CCNCC2)c(=O)c2c(F)cc(-c3cc(F)c4nc(C)cn4c3)cc12` [Compound 558, 4-ethyl-8-fluoro-6-{8-fluoro-2-methylimidazo[1,2-a]pyridin-6-yl}-2-(piperidin-4-yl)isoquinolin-1-one], for which the IC50 lay within 100 to 1000 nM.
As to `C=Cc1cn(C2CCNCC2)c(=O)c2c(F)cc(-c3cc(F)c4nc(C)cn4c3)cc12` [Compound 559, 4-ethenyl-8-fluoro-6-{8-fluoro-2-methylimidazo[1,2-a]pyridin-6-yl}-2-(piperidin-4-yl)isoquinolin-1-one], the IC50 is below 100 nM.
Regarding `Cc1cn2cc(-c3ccc4c(=O)n(C5CCNCC5)ccc4c3)cc(C#N)c2n1` [Compound 560, 2-methyl-6-[1-oxo-2-(piperidin-4-yl)isoquinolin-6-yl]imidazo[1,2-a]pyridine-8-carbonitrile], the IC50 is 100 to 1000 nM.
For the compound `Cc1cc(-c2cc(O)c3c(=O)n(C4CCNC5(CC5)C4)ncc3c2)cc2cn(C)nc12` (stereo not drawn) [Compound 561], the IC50 was 100 to 1000 nM.
Still for that read-out and setting: then `Cc1cn2nc(-c3cc4ncn(C5CCNCC5)c(=O)c4cc3F)cc(C)c2n1` [Compound 585, 7-{2,8-dimethylimidazo[1,2-b]pyridazin-6-yl}-6-fluoro-3-(piperidin-4-yl)quinazolin-4-one], with 1000 to 10000 nM.
Take `Cc1cn2cc(-c3cc4ncn(C5CCNCC5)c(=O)c4cc3F)cc(F)c2n1` [Compound 586, 6-fluoro-7-{8-fluoro-2-methylimidazo[1,2-a]pyridin-6-yl}-3-(piperidin-4-yl)quinazolin-4-one]: the IC50 lay in the range of 100 to 1000 nM.
As for `Cc1cn2cc(-c3cc(O)c4c(=O)n(C5CCNCC5)cnc4c3)cc(F)c2n1` [Compound 587, 7-{8-fluoro-2-methylimidazo[1,2-a]pyridin-6-yl}-5-hydroxy-3-(piperidin-4-yl)quinazolin-4-one], the half-maximal inhibitory concentration (IC50) was 100 to 1000 nM.
Consider `Cc1cn2cc(-c3cc(F)c4c(=O)n(C5CCNCC5)cnc4c3)cc(C#N)c2n1` [Compound 588], for which the IC50 was in the range of 1000 to 10000 nM.
With `Cc1cn2nc(-c3cc(F)c4c(=O)n(C5CCNC5)cnc4c3)cc(C)c2n1` (stereo not drawn) [Compound 589, 7-{2,8-dimethylimidazo[1,2-b]pyridazin-6-yl}-5-fluoro-3-(pyrrolidin-3-yl)quinazolin-4-one], the concentration for half-maximal inhibition (IC50) was in the range of 1000 to 10000 nM.
Regarding `Cc1cn2nc(-c3cc(F)c4c(=O)n([C@@H]5CCN(C)C6(CC6)C5)ncc4c3)cc(C)c2n1` [Compound 637], the IC50 was below 100 nM.
`Cc1cn2nc(-c3cc(F)c4c(=O)n([C@H]5CCN(C)C6(CC6)C5)ncc4c3)cc(C)c2n1` [Compound 638]: the 50% inhibitory concentration (IC50) is below 100 nM.
With `Cc1cn2nc(-c3cc4ccn([C@@H]5CCNC5)c(=O)c4cc3O)cc(C)c2n1` [Compound 640, 6-(2,8-dimethylimidazo[1,2-b]pyridazin-6-yl)-7-hydroxy-2-[(3R)-pyrrolidin-3-yl]isoquinolin-1-one], the 50% inhibitory concentration (IC50) was in the range of 1000 to 10000 nM.
The same measure, in the same setting: for `Cc1cn2nc(-c3cc4ccn([C@H]5CCNC5)c(=O)c4cc3O)cc(C)c2n1` [Compound 641, 6-(2,8-dimethylimidazo[1,2-b]pyridazin-6-yl)-7-hydroxy-2-[(3S)-pyrrolidin-3-yl]isoquinolin-1-one] the value was 100 to 1000 nM; for `Cc1cn2cc(-c3cc(F)c4c(=O)n([C@@H]5C[C@@H](C)N[C@@H](C)C5)ccc4c3)cc(F)c2n1` [Compound 642, 2-[(2S,6R)-2,6-dimethyl-4-piperidyl]-8-fluoro-6-(8-fluoro-2-methyl-imidazo[1,2-a]pyridin-6-yl)isoquinolin-1-one], 100 to 1000 nM.
Same read-out and setting: for `Cc1cn2cc(-c3cc(F)c4c(=O)n([C@H]5CNC[C@@H]5F)ccc4c3)cc(F)c2n1` [Compound 644] the value was above 10000 nM; for `Cc1cn2nc(-c3cc(N)c4c(=O)n([C@H]5CCNC5)ccc4c3)cc(C)c2n1` [Compound 645, 8-amino-6-(2,8-dimethylimidazo[1,2-b]pyridazin-6-yl)-2-[(3S)-pyrrolidin-3-yl]isoquinolin-1-one], 1000 to 10000 nM.
In the case of `Cc1cn2nc(-c3cc(N)c4c(=O)n([C@@H]5CCNC5)ccc4c3)cc(C)c2n1` [Compound 646, 8-amino-6-(2,8-dimethylimidazo[1,2-b]pyridazin-6-yl)-2-[(3R)-pyrrolidin-3-yl]isoquinolin-1-one], the IC50 was above 10000 nM.
In the case of `CNc1cc(-c2cc(C)c3nc(C)cn3n2)cc2ccn([C@H]3CCNC3)c(=O)c12` [Compound 647, 6-(2,8-dimethylimidazo[1,2-b]pyridazin-6-yl)-8-(methylamino)-2-[(3S)-pyrrolidin-3-yl]isoquinolin-1-one], the 50% inhibitory concentration (IC50) was 1000 to 10000 nM.
For `CNc1cc(-c2cc(C)c3nc(C)cn3n2)cc2ccn([C@@H]3CCNC3)c(=O)c12` [Compound 648, 6-(2,8-dimethylimidazo[1,2-b]pyridazin-6-yl)-8-(methylamino)-2-[(3R)-pyrrolidin-3-yl]isoquinolin-1-one], the half-maximal inhibitory concentration (IC50) was above 10000 nM.
The same measure, in the same setting: for `CC(=O)Nc1cc(-c2cc(C)c3nc(C)cn3n2)cc2ccn([C@H]3CCNC3)c(=O)c12` [Compound 649, N-[6-(2,8-dimethylimidazo[1,2-b]pyridazin-6-yl)-1-oxo-2-[(3S)-pyrrolidin-3-yl]-8-isoquinolyl]acetamide] the value was 1000 to 10000 nM.
As to `CC(=O)Nc1cc(-c2cc(C)c3nc(C)cn3n2)cc2ccn([C@@H]3CCNC3)c(=O)c12` [Compound 650, N-[6-(2,8-dimethylimidazo[1,2-b]pyridazin-6-yl)-1-oxo-2-[(3R)-pyrrolidin-3-yl]-8-isoquinolyl]acetamide], the IC50 is above 10000 nM.
As to `Cc1cn2cc(-c3cc(F)c4c(=O)n(C5CC(C)NC(C)C5)ccc4c3)cc(F)c2n1` (stereo not drawn) [Compound 651], the IC50 is below 100 nM.
Still for that read-out and setting: for `Cc1cn2cc(-c3cc(F)c4c(=O)n([C@H]5CNC[C@H]5C)ccc4c3)cc(F)c2n1` [Compound 652, 8-fluoro-6-(8-fluoro-2-methyl-imidazo[1,2-a]pyridin-6-yl)-2-[(3R,4R)-4-methylpyrrolidin-3-yl]isoquinolin-1-one] the value was above 10000 nM; for `Cc1cn2cc(-c3cc(F)c4c(=O)n([C@@H]5CNC[C@@H]5C)ccc4c3)cc(F)c2n1` [Compound 653, 8-fluoro-6-(8-fluoro-2-methyl-imidazo[1,2-a]pyridin-6-yl)-2-[(3S,4S)-4-methylpyrrolidin-3-yl]isoquinolin-1-one], above 10000 nM; for `Cn1cc2cc(-c3ncc4c(=O)n(C5CCNCC5)ccc4n3)c(O)c(F)c2n1` [Compound 1123], below 100 nM.

The same assay, now with this note: HiBiT lytic detection, modified K562 cells, 24 hours, top dose 10 μM; read-out: Effect on protein abundance, HTT (IC50).
As for `CNC1CCN(c2ccc3cc(-c4cc(C)c5nc(C)cn5n4)ccn3c2=O)C1` (stereo not drawn) [Compound 1158], the IC50 lay within 100 to 1000 nM.
Still for that read-out and setting: then `Cc1cn2nc(-c3ccn4c(=O)c(C5CCNCC5)ccc4c3)cc(C)c2n1` [Compound 1181], with below 100 nM.
`Cc1cn2nc(-c3ccn4c(=O)c(C5=CCNCC5)ncc4c3)cc(C)c2n1` [Compound 1182]: the IC50 lay within 100 to 1000 nM.
